Laboratory results: patent publication US20110105623A1 (Biogenic Innovations, LLC, priority 2009, published 2011)

Legend:
Chlorella minutissima = test: Algal growth by percent transmittance at 750 nm; type: cell-based; conditions: MSM […]
Procedure: (§1) Two species of Chlorella were examined for growth—Chlorella sorokiniana a freshwater species and Chlorella minutissima a marine species. […] Growth was measured on day 0, 1, 2, 3, 4, 5, 6, 7, 8, 9 and 10. […] The following media were purchased from UTEX Culture Collection of Algae: Enriched Salt Water Medium and Volvox Dextrose Medium.
(§2) The algae were grown for 48 hours in the appropriate medium. The initial suspension was enumerated for each alga and is referred to as the starting inoculums. Chlorella sorokiniana was at 381 million cells per milliliter and Chlorella minutissima was at 19 million cells per milliliter. One milliliter of the algal solution was placed into 9 mLs of medium and mixed by vortexing. […] The tube of algae and MSM were incubated at room temperature with exposure to sunlight. […] Each dilution of MSM for each organism was set up in and analyzed in triplicate for each time interval measured. The samples were measured by percent transmittance on a UV/VIS spectrophotometer at wavelength 750 nm. The medium stock was tested for percent transmittance background levels at every time interval were measured. The lower percent transmittance indicated a higher growth factor.

Chlorella sorokiniana = test: Algal growth by percent transmittance at 750 nm; type: cell-based
Procedure: as §1, §2

Substance: Methylsulfonylmethane [MSM]
- Growth, percent transmittance at 750 nm (Chlorella minutissima; Sample Day 9): 23.3%
- Growth, percent transmittance at 750 nm (Chlorella minutissima; Sample Day 10): 21.1%
- Growth, percent transmittance at 750 nm (Chlorella sorokiniana; MSM 0.5%, Sample Day 0): 47.3%
- Growth, percent transmittance at 750 nm (Chlorella sorokiniana; MSM 0.5%, Sample Day 1): 41.8%
- Growth, percent transmittance at 750 nm (Chlorella sorokiniana; MSM 0.5%, Sample Day 2): 29.3%
- Growth, percent transmittance at 750 nm (Chlorella sorokiniana; MSM 0.5%, Sample Day 3): 29.6%
- Growth, percent transmittance at 750 nm (Chlorella sorokiniana; MSM 0.5%, Sample Day 4): 19.0%
- Growth, percent transmittance at 750 nm (Chlorella sorokiniana; MSM 0.5%, Sample Day 5): 12.4%
- Growth, percent transmittance at 750 nm (Chlorella sorokiniana; MSM 0.5%, Sample Day 6): 12.5%
- Growth, percent transmittance at 750 nm (Chlorella sorokiniana; MSM 0.5%, Sample Day 7): 11.9%
- Growth, percent transmittance at 750 nm (Chlorella sorokiniana; MSM 0.5%, Sample Day 8): 12.2%
- Growth, percent transmittance at 750 nm (Chlorella sorokiniana; MSM 0.5%, Sample Day 9): 7.5%
- Growth, percent transmittance at 750 nm (Chlorella sorokiniana; MSM 0.5%, Sample Day 10): 6.4%
- Growth, percent transmittance at 750 nm (Chlorella sorokiniana; MSM 1%, Sample Day 0): 48.7%
- Growth, percent transmittance at 750 nm (Chlorella sorokiniana; MSM 1%, Sample Day 1): 42.5%
- Growth, percent transmittance at 750 nm (Chlorella sorokiniana; MSM 1%, Sample Day 2): 37.5%
- Growth, percent transmittance at 750 nm (Chlorella sorokiniana; MSM 1%, Sample Day 3): 37.5%
- Growth, percent transmittance at 750 nm (Chlorella sorokiniana; MSM 1%, Sample Day 4): 17.3%
- Growth, percent transmittance at 750 nm (Chlorella sorokiniana; MSM 1%, Sample Day 5): 13.5%
- Growth, percent transmittance at 750 nm (Chlorella sorokiniana; MSM 1%, Sample Day 6): 13.0%
- Growth, percent transmittance at 750 nm (Chlorella sorokiniana; MSM 1%, Sample Day 7): 12.5%
- Growth, percent transmittance at 750 nm (Chlorella sorokiniana; MSM 1%, Sample Day 8): 12.4%
- Growth, percent transmittance at 750 nm (Chlorella sorokiniana; MSM 1%, Sample Day 9): 7.8%
- Growth, percent transmittance at 750 nm (Chlorella sorokiniana; MSM 1%, Sample Day 10): 6.6%
- Growth, percent transmittance at 750 nm (Chlorella sorokiniana; MSM 5%, Sample Day 0): 35.6%
- Growth, percent transmittance at 750 nm (Chlorella sorokiniana; MSM 5%, Sample Day 1): 31.2%
- Growth, percent transmittance at 750 nm (Chlorella sorokiniana; MSM 5%, Sample Day 2): 27.4%
- Growth, percent transmittance at 750 nm (Chlorella sorokiniana; MSM 5%, Sample Day 3): 21.4%
- Growth, percent transmittance at 750 nm (Chlorella sorokiniana; MSM 5%, Sample Day 4): 18.2%
- Growth, percent transmittance at 750 nm (Chlorella sorokiniana; MSM 5%, Sample Day 5): 15.7%
- Growth, percent transmittance at 750 nm (Chlorella sorokiniana; MSM 5%, Sample Day 6): 15.9%
- Growth, percent transmittance at 750 nm (Chlorella sorokiniana; MSM 5%, Sample Day 7): 16.3%
- Growth, percent transmittance at 750 nm (Chlorella sorokiniana; MSM 5%, Sample Day 8): 17.0%
- Growth, percent transmittance at 750 nm (Chlorella sorokiniana; MSM 5%, Sample Day 9): 13.7%
- Growth, percent transmittance at 750 nm (Chlorella sorokiniana; MSM 5%, Sample Day 10): 12.8%
- Growth, percent transmittance at 750 nm (Chlorella sorokiniana; MSM 10%, Sample Day 0): 31.2%
- Growth, percent transmittance at 750 nm (Chlorella sorokiniana; MSM 10%, Sample Day 1): 31.3%
- Growth, percent transmittance at 750 nm (Chlorella sorokiniana; MSM 10%, Sample Day 2): 29.7%
- Growth, percent transmittance at 750 nm (Chlorella sorokiniana; MSM 10%, Sample Day 3): 28.4%
- Growth, percent transmittance at 750 nm (Chlorella sorokiniana; MSM 10%, Sample Day 4): 29.0%
- Growth, percent transmittance at 750 nm (Chlorella sorokiniana; MSM 10%, Sample Day 5): 28.7%
- Growth, percent transmittance at 750 nm (Chlorella sorokiniana; MSM 10%, Sample Day 6): 27.1%
- Growth, percent transmittance at 750 nm (Chlorella sorokiniana; MSM 10%, Sample Day 7): 27.6%
- Growth, percent transmittance at 750 nm (Chlorella sorokiniana; MSM 10%, Sample Day 8): 27.1%
- Growth, percent transmittance at 750 nm (Chlorella sorokiniana; MSM 10%, Sample Day 9): 76.4%
- Growth, percent transmittance at 750 nm (Chlorella sorokiniana; MSM 10%, Sample Day 10): 93.8%
- Growth, percent transmittance at 750 nm (Chlorella sorokiniana; MSM 20%, Sample Day 0): 19.3%
- Growth, percent transmittance at 750 nm (Chlorella sorokiniana; MSM 20%, Sample Day 1): 21.9%
- Growth, percent transmittance at 750 nm (Chlorella sorokiniana; MSM 20%, Sample Day 2): 24.1%
- Growth, percent transmittance at 750 nm (Chlorella sorokiniana; MSM 20%, Sample Day 3): 28.1%
- Growth, percent transmittance at 750 nm (Chlorella sorokiniana; MSM 20%, Sample Day 4): 31.4%
- Growth, percent transmittance at 750 nm (Chlorella sorokiniana; MSM 20%, Sample Day 5): 33.6%
- Growth, percent transmittance at 750 nm (Chlorella sorokiniana; MSM 20%, Sample Day 6): 36.8%
- Growth, percent transmittance at 750 nm (Chlorella sorokiniana; MSM 20%, Sample Day 7): 40.6%
- Growth, percent transmittance at 750 nm (Chlorella sorokiniana; MSM 20%, Sample Day 8): 40.8%
- Growth, percent transmittance at 750 nm (Chlorella sorokiniana; MSM 20%, Sample Day 9): 84.8%
- Growth, percent transmittance at 750 nm (Chlorella sorokiniana; MSM 20%, Sample Day 10): 96.7%
- Growth, percent transmittance at 750 nm (Chlorella sorokiniana; MSM […], Sample Day 0): 40.6%
- Growth, percent transmittance at 750 nm (Chlorella sorokiniana; MSM […], Sample Day 1): 43.1%
- Growth, percent transmittance at 750 nm (Chlorella sorokiniana; MSM […], Sample Day 2): 44.9%
- Growth, percent transmittance at 750 nm (Chlorella sorokiniana; MSM […], Sample Day 3): 43.8%
- Growth, percent transmittance at 750 nm (Chlorella sorokiniana; MSM […], Sample Day 4): 26.1%
- Growth, percent transmittance at 750 nm (Chlorella sorokiniana; MSM […], Sample Day 5): 10.3%
- Growth, percent transmittance at 750 nm (Chlorella sorokiniana; MSM […], Sample Day 6): 10.9%
- Growth, percent transmittance at 750 nm (Chlorella sorokiniana; MSM […], Sample Day 7): 11.0%
- Growth, percent transmittance at 750 nm (Chlorella sorokiniana; MSM […], Sample Day 8): 11.2%
- Growth, percent transmittance at 750 nm (Chlorella sorokiniana; MSM […], Sample Day 9): 8.4%
- Growth, percent transmittance at 750 nm (Chlorella sorokiniana; MSM […], Sample Day 10): 6.0%
